Numbers after ± are expanded uncertainties.
Columns and labels:
[1] = 100 kPa, Liquid, Vibrating tube method
[2] = molar heat capacity at constant pressure; settings: 100 kPa, Liquid, Large sample (1 g) DSC
[3] = xn = mol fraction of the nth substance listed; settings: 100 kPa, Liquid, Vibrating tube method, x2 = 0
[4] = molar heat capacity at constant pressure; xn = mol fraction of the nth substance listed; settings: 100 kPa, Liquid, Large sample (1 g) DSC, x2 = 0

CCO [ethanol]
mass density ([1]; 298.15 K): 785.11 ± 0.71 kg/m3
mass density ([1]; 308.15 K): 776.44 ± 0.71 kg/m3
mass density ([1]; 318.15 K): 767.62 ± 0.71 kg/m3
mass density ([1]; 328.15 K): 758.6 ± 0.71 kg/m3
molar heat capacity at constant pressure ([2]; 298.6 K): 112 ± 1.8 J/K/mol
molar heat capacity at constant pressure ([2]; 308.5 K): 116.4 ± 1.9 J/K/mol
molar heat capacity at constant pressure ([2]; 318.5 K): 121 ± 2 J/K/mol
molar heat capacity at constant pressure ([2]; 328.4 K): 125.6 ± 2 J/K/mol

CCO [ethanol] + Cc1ccc(C(C)C)cc1
mass density ([3]; 298.15 K): 785.11 ± 0.71 kg/m3
mass density ([3]; 308.15 K): 776.44 ± 0.71 kg/m3
mass density ([3]; 318.15 K): 767.62 ± 0.71 kg/m3
mass density ([3]; 328.15 K): 758.6 ± 0.71 kg/m3
molar heat capacity at constant pressure ([4]; 298.6 K): 112 ± 1.8 J/K/mol
molar heat capacity at constant pressure ([4]; 308.5 K): 116.4 ± 1.9 J/K/mol
molar heat capacity at constant pressure ([4]; 318.5 K): 121 ± 2 J/K/mol
molar heat capacity at constant pressure ([4]; 328.4 K): 125.6 ± 2 J/K/mol

Cc1ccc(C(C)C)cc1 [1-(1-methylethyl)-4-methylbenzene]
mass density ([1]; 298.15 K): 852.93 ± 0.71 kg/m3
mass density ([1]; 308.15 K): 844.89 ± 0.71 kg/m3
mass density ([1]; 318.15 K): 836.81 ± 0.71 kg/m3
mass density ([1]; 328.15 K): 828.69 ± 0.71 kg/m3
molar heat capacity at constant pressure ([2]; 298.6 K): 240.3 ± 3.9 J/K/mol
molar heat capacity at constant pressure ([2]; 308.5 K): 244.7 ± 4 J/K/mol
molar heat capacity at constant pressure ([2]; 318.5 K): 249.4 ± 4.1 J/K/mol
molar heat capacity at constant pressure ([2]; 328.4 K): 254.4 ± 4.1 J/K/mol

Source: the NIST ThermoML archive (doi:10.1016/j.jct.2017.03.027)
